From patent publication US12312359B2 (Vitae Pharmaceuticals, LLC, priority 2016, dated 2025) come the findings set out here.

This test has as its target T1, biotinylated wild-type menin and MLL-AF9 fusion protein (menin/MLL binding) (Homo sapiens, UniProt O00255).
T1 construct: made in house; host or cells: menin: E. coli; MLL-AF9-FLAG: HEK293 cells, used as cleared lysate
T1 sequence (O00255 1-610): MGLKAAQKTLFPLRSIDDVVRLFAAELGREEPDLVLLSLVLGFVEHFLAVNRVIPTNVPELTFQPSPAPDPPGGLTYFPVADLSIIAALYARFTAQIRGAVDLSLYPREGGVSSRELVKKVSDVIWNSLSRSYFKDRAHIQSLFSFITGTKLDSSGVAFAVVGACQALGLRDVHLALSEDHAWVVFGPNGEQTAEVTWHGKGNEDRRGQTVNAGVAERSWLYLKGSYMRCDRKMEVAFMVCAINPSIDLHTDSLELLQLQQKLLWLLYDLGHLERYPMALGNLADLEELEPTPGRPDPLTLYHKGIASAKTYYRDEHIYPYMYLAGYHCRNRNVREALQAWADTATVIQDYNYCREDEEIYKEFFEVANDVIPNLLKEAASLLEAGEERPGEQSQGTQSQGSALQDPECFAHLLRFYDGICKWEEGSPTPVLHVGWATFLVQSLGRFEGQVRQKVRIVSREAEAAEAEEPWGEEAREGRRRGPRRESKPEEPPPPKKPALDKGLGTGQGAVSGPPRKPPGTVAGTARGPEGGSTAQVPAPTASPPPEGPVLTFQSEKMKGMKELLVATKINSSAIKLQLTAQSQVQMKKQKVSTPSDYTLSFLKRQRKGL
In words: Assay 1: menin/MLL binding AlphaLISA assay, wild-type menin. Particulars: Table 30; column head does not say wild-type or mutated menin. Here is the method: Potencies of inhibitor compounds against menin/MLL binding were assessed by AlphaLISA assay using biotinylated (1) wild-type menin or (2) mutated menin (described in Huang et al, 2012, Nature, 482, 542-546) and MLL-AF9 fusion protein bearing a FLAG epitope at its C-terminus. Menin proteins were expressed in E. coli and covalently modified with biotin using EZ-Link™ Sulfo-NHS-Biotin (ThermoFisher Cat.No. 21217) according to manufacturer's protocol. MLL1-1,396 fused to AF91-92 and the C-terminal FLAG peptide was expressed in HEK293 cells and used as a lysate cleared at 21,000×g for 10 min.
Compounds (2 μL of solutions in DMSO) were dispensed in white 96-well half-area plates (Corning Cat.No. 3693) and incubated for 30 min at RT with 5 nM biotinylated menin and appropriate amount of MLL-AF9-FLAG lysate in 40 μL of 50 mM Tris-HCl buffer pH 7.4 containing 5% (v/v) DMSO, 50 mM NaCl, 0.01% (w/v) bovine serum albumin (BSA) and 1 mM DTT. To this incubation mixture, 40 μL of AlphaLISA anti-FLAG acceptor (PerkinElmer Cat.No. AL112C) and streptavidin donor (PerkinElmer Cat.No. 6760002) beads (10 μg/mL each) was added and incubation continued at RT for 60 min. Alpha (amplified luminescent proximity homogeneous assay) signal was measured on an Envision multi-label plate reader at the end of the incubation. All steps were conducted under dim fluorescent light.
These percent inhibition values were regressed against compound concentrations in the assay using four parameter logit non-linear curve fitting (XLFit, IDBS). The IC50 values were derived from the curve fitting as inflection points on the dose-response curves and are set out in Table 30 below.
In general terms: In Alpha technology, singlet oxygen from a donor bead excites a nearby acceptor bead.

For `CC(C)n1nccc1-c1cc(F)ccc1Oc1cncnc1N1CCC2(CC(=O)N(Cc3ccc4[nH]c(=O)[nH]c4c3)C2)C1` (stereo not shown) [Example 13, 5-((7-(5-(4-fluoro-2-(1-isopropyl-1H-pyrazol-5-yl)phenoxy)pyrimidin-4-yl)-3-oxo-2,7-diazaspiro[4.4]nonan-2-yl)methyl)-1H-benzo[d]imidazol-2(3H)-one], the IC50 is less than 100 nM.

As for `CC(C)c1ccccc1-c1cc(F)ccc1Nc1cncnc1N1CCC2(CCN(Cc3ccc4[nH]c(=O)[nH]c4c3)C2)C1` (stereo not shown) [Example 243, 5-((7-(5-((5-fluoro-2′-isopropyl-[1,1′-biphenyl]-2-yl)amino)pyrimidin-4-yl)-2,7-diazaspiro [4.4]nonan-2-yl)methyl)-1,3-dihydro-2H-benzo[d]imidazol-2-one], the 50% inhibitory concentration (IC50) was less than 100 nM.

Turning to `CCc1ccccc1-c1cc(F)ccc1Nc1cncnc1N1CCC2(CC1)CN(CC(C)C)C2` [Example 247, N-(2′-ethyl-S-fluoro-[1,1′-biphenyl]-2-yl)-4-(2-isobutyl-2,7-diazaspiro[3.5]nonan-7-yl) pyrimidin-5-amine], the half-inhibitory concentration (IC50) was less than 100 nM.

As for `CC(C)CN1CC2(CCN(c3ncncc3Nc3ccc(F)cc3-c3ccccc3C(C)C)CC2)C1` [Example 246, N-(5-fluoro-2′-isopropyl-[1,1′-biphenyl]-2-yl)-4-(2-isobutyl-2,7-diazaspiro[3.5]nonan-7-yl) pyrimidin-5-amine], the half-maximal inhibitory concentration (IC50) was less than 100 nM.

`CC(C)c1ncncc1-c1cc(F)ccc1Nc1cncnc1N1CC2(CN(CC3CCOCC3)C2)C1` [Example 244, N-(4-fluoro-2-(4-isopropylpyrimidin-5-yl)phenyl)-4-(6-((tetrahydro-2H-pyran-4-yl)methyl)-2,6-diazaspiro[3.3]heptan-2-yl) pyrimidin-5-amine]: the half-inhibitory concentration (IC50) was less than 100 nM.

`CC(C)c1ncncc1-c1cc(F)ccc1Oc1cncnc1N1CCC2(CCC(Cc3ccccc3)C2)C1` (stereo not shown) [Example 59, 7-benzyl-2-(5-(4-fluoro-2-(4-isopropylpyrimidin-5-yl)phenoxy)pyrimidin-4-yl)-2-azaspiro[4.4]nonane]: the IC50 is no less than 1000 nM.

Take `CCc1ccccc1-c1cc(F)ccc1Cc1cnccc1N1CC2(CN(CC3CCOCC3)C2)C1` [Example 78, 2-(3-((2′-ethyl-5-fluoro-[1,1′-biphenyl]-2-yl)methyl)pyridin-4-yl)-6-((tetrahydro-2H-pyran-4-yl)methyl)-2,6-diazaspiro[3.3]heptane]: the half-maximal inhibitory concentration (IC50) was in the range of 100 to 1000 nM.

In turn, `CC(C)(F)c1cc(F)ccc1-c1cc(F)ccc1Oc1cncnc1N1CC2(CN(CC3CCOCC3)C2)C1` [Example 31, 2-(5-((4′,5-difluoro-2′-(2-fluoropropan-2-yl)-[1,1′-biphenyl]-2-yl)oxy)pyrimidin-4-yl)-6-((tetrahydro-2H-pyran-4-yl)methyl)-2,6-diazaspiro[3.3]heptane] displayed an IC50 of less than 100 nM.

Compound `CC(C)n1nccc1-c1cc(F)ccc1Oc1cncnc1N1CCC2(CCN(C(=O)C(N)C3CCCCC3)C2)C1` (single isomer, unassigned) [Example 206B, 2-amino-2-cyclohexyl-1-(7-(5-(4-fluoro-2-(1-isopropyl-1H-pyrazol-5-yl)phenoxy)pyrimidin-4-yl)-2,7-diazaspiro[4.4]nonan-2-yl)ethanone] returned an IC50 of 100 to 1000 nM.

In the case of `CC(C)c1ncncc1-c1cc(F)ccc1Oc1cncnc1N1CCC2(CC(N3CCc4cc(F)ccc4C3)CO2)C1` (stereo not shown) [Example 157, 7-(5-(4-fluoro-2-(4-isopropylpyrimidin-5-yl)phenoxy)pyrimidin-4-yl)-3-(6-fluoro-3,4-dihydroisoquinolin-2(1H)-yl)-1-oxa-7-azaspiro[4.4]nonane], the half-inhibitory concentration (IC50) was less than 100 nM.

In turn, `O=c1[nH]c2ccc(CN3CCC4(CCN(c5ncncc5Oc5ccc(F)cc5-c5ccccc5C(F)(F)F)C4)C3)cc2[nH]1` (stereo not shown) [Example 50, 5-((7-(5-((5-fluoro-2′-(trifluoromethyl)-[1,1′-biphenyl]-2-yl)oxy)pyrimidin-4-yl)-2,7-diazaspiro[4.4]nonan-2-yl)methyl)-1H-benzo[d]imidazol-2(3H)-one] yielded a 50% inhibitory concentration (IC50) of less than 100 nM.

The compound `CP(C)(=O)c1cc(F)ccc1Oc1cncnc1N1CCC2(CCN(Cc3ccc4[nH]c(=O)[nH]c4c3)C2)C1` (stereo not shown) [Example 17, 5-((7-(5-(2-(dimethylphosphoryl)-4-fluorophenoxy)pyrimidin-4-yl)-2,7-diazaspiro[4.4]nonan-2-yl)methyl)-1H-benzo[d]imidazol-2(3H)-one] registered a half-maximal inhibitory concentration (IC50) of 100 to 1000 nM.

`N#Cc1ccc(-c2cc(F)ccc2Oc2cncnc2N2CCC3(CCN(c4nc(C(=O)O)cs4)C3)C2)c(C2CC2)c1` (stereo not shown) [Example 56, 2-(7-(5-((4′-cyano-2′-cyclopropyl-5-fluoro-[1,1′-biphenyl]-2-yl)oxy)pyrimidin-4-yl)-2,7-diazaspiro[4.4]nonan-2-yl)thiazole-4-carboxylicacid] returned an IC50 of no less than 1000 nM.

Take `N#Cc1ccc(-c2cc(F)ccc2Oc2cncnc2N2CCC3(CCC(N)(Cc4ccccc4)C3)C2)c(C2CC2)c1` (single isomer, unassigned) [Example 250A, 2′-((4-(7-amino-7-benzyl-2-azaspiro[4.4]nonan-2-yl)pyrimidin-5-yl)oxy)-2-cyclopropyl-5′-fluoro-[1,1′-biphenyl]-4-carbonitrile]: the half-maximal inhibitory concentration (IC50) was 100 to 1000 nM.

As to `CNC(=O)[C@H]1CC[C@H](CN2CCC3(CC2)CN(c2ncncc2Oc2ccc(F)cc2C(=O)N(C)C(C)C)C3)CC1` [Example 21, 5-fluoro-N-isopropyl-N-methyl-2-((4-(7-(((1r,4r)-4-(methylcarbamoyl)cyclohexyl)methyl)-2,7-diazaspiro[3.5]nonan-2-yl)pyrimidin-5-yl)oxy)benzamide], the IC50 was 100 to 1000 nM.

For the compound `CC1(C)C(=O)Nc2cc(CN3CCC4(C3)CN(c3ncncc3Oc3ccc(F)cc3Cl)C4)ccc21` [Example 39, 6-((2-(5-(2-chloro-4-fluorophenoxy)pyrimidin-4-yl)-2,6-diazaspiro[3.4]octan-6-yl)methyl)-3,3-dimethylindolin-2-one], the IC50 was in the range of 100 to 1000 nM.

For the compound `CCc1ccccc1-c1cc(F)ccc1Nc1cncnc1N1CCC2(CC1)CN(CC(C)(C)O)C2` [Example 71, 1-(7-(5-((2′-ethyl-5-fluoro-[1,1′-biphenyl]-2-yl)amino)pyrimidin-4-yl)-2,7-diazaspiro[3.5]nonan-2-yl)-2-methylpropan-2-ol], the IC50 was less than 100 nM.

`CC(C)N(C(=O)c1cc(F)ccc1Oc1cncnc1N1CCC2(CC(O)C(Cc3ccc4[nH]c(=O)[nH]c4c3)C2)C1)C(C)C` (single isomer, unassigned) [Example 23B, 5-fluoro-2-((4-(7-hydroxy-8-((2-oxo-2,3-dihydro-1H-benzo[d]imidazol-5-yl)methyl)-2-azaspiro[4.4]nonan-2-yl)pyrimidin-5-yl)oxy)-N,N-diisopropylbenzamide]: the IC50 fell in the range of 100 to 1000 nM.

The compound `CC(C)c1ccccc1-c1cc(F)ccc1Nc1cnccc1N1CC2(CN(CC3CCOCC3)C2)C1` [Example 30, N-(5-fluoro-2′-isopropyl-[1,1′-biphenyl]-2-yl)-4-(6-((tetrahydro-2H-pyran-4-yl)methyl)-2,6-diazaspiro[3.3]heptan-2-yl)pyridin-3-amine] showed a half-inhibitory concentration (IC50) of less than 100 nM.

The compound `CC(C)n1nccc1-c1cc(F)ccc1Oc1cncnc1N1CCC2(CCN(C(=O)C(N)C3CCCCC3)C2)C1` (single isomer, unassigned) [Example 206C, 2-amino-2-cyclohexyl-1-(7-(5-(4-fluoro-2-(1-isopropyl-1H-pyrazol-5-yl)phenoxy)pyrimidin-4-yl)-2,7-diazaspiro[4.4]nonan-2-yl)ethanone] had a half-inhibitory concentration (IC50) of 100 to 1000 nM.

On to `CC(C)CN1CC2(CCN(c3ncncc3Nc3ccc(F)cc3-c3ccccc3OC(C)C)CC2)C1` [Example 245, N-(5-fluoro-2′-isopropoxy-[1,1′-biphenyl]-2-yl)-4-(2-isobutyl-2,7-diazaspiro[3.5]nonan-7-yl) pyrimidin-5-amine], for which the IC50 is less than 100 nM.

Regarding `Cc1noc(C(C)C)c1-c1cc(F)ccc1Nc1cncnc1N1CC2(CN(CC3CCOCC3)C2)C1` [Example 14A, N-(4-fluoro-2-(5-isopropyl-3-methylisoxazol-4-yl)phenyl)-4-(6-((tetrahydro-2H-pyran-4-yl)methyl)-2,6-diazaspiro[3.3]heptan-2-yl)pyrimidin-5-amine], the 50% inhibitory concentration (IC50) was less than 100 nM.

Broadly, the IC50 is the concentration at which inhibition is half-maximal. The low end stands for greater potency in that assay, the high end for weaker potency in that assay.
